Series [1] concerns the target T1, DMT1 (Homo sapiens, UniProt P49281).
T1 sequence (P49281 1-568): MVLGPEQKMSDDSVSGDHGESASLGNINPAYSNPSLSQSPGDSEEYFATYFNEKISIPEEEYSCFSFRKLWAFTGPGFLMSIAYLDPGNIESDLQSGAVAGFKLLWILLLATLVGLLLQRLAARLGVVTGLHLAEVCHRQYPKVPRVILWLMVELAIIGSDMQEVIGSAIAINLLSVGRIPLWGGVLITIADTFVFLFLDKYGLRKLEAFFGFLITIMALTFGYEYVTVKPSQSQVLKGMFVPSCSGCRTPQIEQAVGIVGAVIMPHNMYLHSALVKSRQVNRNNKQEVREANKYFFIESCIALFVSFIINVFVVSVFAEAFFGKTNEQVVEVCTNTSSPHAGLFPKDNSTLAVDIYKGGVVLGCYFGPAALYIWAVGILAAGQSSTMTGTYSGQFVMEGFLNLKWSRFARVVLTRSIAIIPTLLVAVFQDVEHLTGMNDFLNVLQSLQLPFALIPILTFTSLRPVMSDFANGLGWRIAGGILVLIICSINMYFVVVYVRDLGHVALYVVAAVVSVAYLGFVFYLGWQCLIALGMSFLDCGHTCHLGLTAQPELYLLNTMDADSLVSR
Kind of series: DMT1 activity assay (in vitro). To be noted: inhibition of DMT1; read-out: IC50 Activity Level. In kind it is cell-based. The text has this: One such protocol involves the screening of chemical agents for ability to modulate the activity of DMT1 thereby identifying it as a modulating agent. The in vitro activity of DMT1 can be measured in cell based assays by either directly measuring iron flux (using a radioactively labelled iron ^55Fe) or by measuring the fluorescence of a cell permeable iron fluorophore such as calcein. Stable cell lines overexpressing DMT1 are exposed to ^55Fe or loaded with calcein and then compound is applied. […] Alternatively, in another format electrophysiological techniques can be used to measure the current or iron or other metals traversing the cell membrane with DMT1 in a Xenopus oocyte or other cell based system (Gunshin et al., Nature, 1997, 31; 388(6641):482-8).
This example discloses various in vitro assay for testing and profiling test agents against DMT1 stably expressed in cells of either an endogenous or recombinant origin. These assays can use stable cell lines overexpressing DMT1 or intestinal cells and intestinal tissue expressing endogenous DMT1. DMT1 function could also be assessed in other cell types that express DMT1. Of greatest relevance would be the erythrocytes (e.g. K562 cells) or hepatocytes (e.g. […]).
DMT1 function can be assessed in a number of ways, including monitoring fluorescence changes of an iron fluorophore (e.g. calcein), monitoring uptake of radiolabelled iron (^55Fe or ^59Fe) (Picard et al., J. Biol. Chem., 2000, 275(46):35738-45 and Wetli et al., Chem. Biol. 2006 September; 13(9):965-72), or by assessing the current or transport of iron and other metals into the cells or tissues using standard electrophysiological techniques (Gunshin et al., Nature, 1997, 388(6641):482-8.).
Variations of these assays involve alterations of incubation times, the iron status of the cells and tissues (which may be modulated by chemical chelators or by harvesting from iron deficient animals), the metal cation detected and the pH of the reaction can generally be made by conventional techniques known to those skilled in the art.

Turning to `Oc1c2c(nn1-c1ccccn1)CCc1ccccc1-2` [Example 1, 2-pyridin-2-yl-4,5-dihydro-2H-benzo[e]indazol-1-ol], the melting point (as a rule, the temperature, or range, at which the solid turns liquid) fell in the range of 145 to 146 °C.
On the same count and under the same terms, in the case of `Oc1c2c(nn1-c1ccccn1)CCc1cc(Br)ccc1-2` [Example 1.1, 7-bromo-2-pyridin-2-yl-4,5-dihydro-2H-benzo[e]indazol-1-ol] it was 164 to 165 °C; in that of `COc1ccc2c(c1)CCc1nn(-c3ccccn3)c(O)c1-2` [Example 1.2, 7-methoxy-2-pyridin-2-yl-4,5-dihydro-2H-benzo[e]indazol-1-ol], 139 to 140 °C.
Consider `COc1ccc2c(c1)-c1c(nn(-c3ccccn3)c1O)CC2` [Example 1.3, 8-methoxy-2-pyridin-2-yl-4,5-dihydro-2H-benzo[e]indazol-1-ol], for which the melting point fell in the range of 116 to 117 °C. Moreover, the IC50 (as a rule, the concentration that gives 50% inhibition) in series [1] is at least 1 µM.
Compound `N#Cc1ccc2c(c1)CCc1nn(-c3ccccn3)c(O)c1-2` [Example 1.4, 1-hydroxy-2-pyridin-2-yl-4,5-dihydro-2H-benzo[e]indazole-7-carbonitrile] came in with a melting point of 232 to 233 °C.
`Cc1ccc(-c2ccc3c(c2)CCc2nn(-c4ccccn4)c(O)c2-3)cc1` [Example 1.6, 2-pyridin-2-yl-7-p-tolyl-4,5-dihydro-2H-benzo[e]indazol-1-ol] yielded a melting point of 177 to 178 °C.
Same read-out and setting: in the case of `COc1ccc(-c2ccc3c(c2)CCc2nn(-c4ccccn4)c(O)c2-3)cc1` [Example 1.7, 7-(4-methoxyphenyl)-2-pyridin-2-yl-4,5-dihydro-2H-benzo[e]indazol-1-ol] it was 159 to 160 °C.
For `Oc1c2c(nn1-c1ccccn1)CCc1cc(-c3ccc4c(c3)OCO4)ccc1-2` [Example 1.8, 7-benzo[1,3]dioxol-5-yl-2-pyridin-2-yl-4,5-dihydro-2H-benzo[e]indazol-1-ol], the melting point lay in the range of 205 to 206 °C. Also, in series [1], the 50% inhibitory concentration (IC50) is 0.1 to 1 µM.
On the same counts, the results for `N#Cc1ccc(-c2ccc3c(c2)CCc2nn(-c4ccccn4)c(O)c2-3)cc1` [Example 1.9, 4-(1-hydroxy-2-pyridin-2-yl-4,5-dihydro-2H-benzo[e]indazol-7-yl)-benzonitrile] are 274 to 275 °C and at least 1 µM.
The corresponding values for `Oc1c2c(nn1-c1ccc(C(F)(F)F)cn1)CCc1ccccc1-2` [Example 1.10, 2-(5-(trifluoromethyl)pyridin-2-yl)-4,5-dihydro-2H-benzo[e]indazol-1-ol] are 158 to 159 °C and at least 1 µM.
On the same counts, the results for `Oc1c2c(nn1-c1cc(C(F)(F)F)ccn1)CCc1ccccc1-2` [Example 1.11, 2-(4-(trifluoromethyl)pyridin-2-yl)-4,5-dihydro-2H-benzo[e]indazol-1-ol] are 161 to 162 °C and 0.1 to 1 µM.
In turn, `Oc1c2c(nn1-c1ncccc1C(F)(F)F)CCc1ccccc1-2` [Example 1.12, 2-(3-(trifluoromethyl)pyridin-2-yl)-4,5-dihydro-2H-benzo[e]indazol-1-ol] came in with a melting point of 174 to 175 °C. For the same compound, in series [1], the half-inhibitory concentration (IC50) was at least 1 µM.
Consider `O=[N+]([O-])c1ccc(-n2nc3c(c2O)-c2ccccc2CC3)nc1` [Example 1.13, 2-(5-nitropyridin-2-yl)-4,5-dihydro-2H-benzo[e]indazol-1-ol], for which the melting point is 226 to 227 °C. Besides, in series [1], the IC50 lay within 0.1 to 1 µM.
On the same counts, the results for `Cc1ccc(-n2nc3c(c2O)-c2ccccc2CC3)nc1` [Example 2, 2-(5-methylpyridin-2-yl)-4,5-dihydro-2H-benzo[e]indazol-1-ol] are 156 to 157 °C and 0.1 to 1 µM.
Regarding `[O-][n+]1ccccc1-n1nc2c(c1O)-c1ccccc1CC2` [Example 3, 2-(1-hydroxy-4,5-dihydro-2H-benzo[e]indazol-2-yl)pyridine 1-oxide], the melting point was in the range of 155 to 156 °C.
`Oc1c2c(nn1-c1nc3ccccc3s1)CCc1ccccc1-2` [Example 4, 2-(benzo[d]thiazol-2-yl)-4,5-dihydro-2H-benzo[e]indazol-1-ol] registered a melting point of 234 to 235 °C.
The compound `COc1ccc2c(c1)CCc1nn(-c3nc4ccccc4s3)c(O)c1-2` [Example 4.1, 2-(benzo[d]thiazol-2-yl)-7-methoxy-4,5-dihydro-2H-benzo[e]indazol-1-ol] came in with a melting point of 182 to 183 °C. The 50% inhibitory concentration (IC50) in series [1] was 0.1 to 1 µM.
In the case of `COc1ccc2nc(-n3nc4c(c3O)-c3ccccc3CC4)sc2c1` [Example 4.2, 2-(6-methoxybenzo[d]thiazol-2-yl)-4,5-dihydro-2H-benzo[e]indazol-1-ol], the melting point fell in the range of 204 to 205 °C.
In turn, `Oc1c2c(nn1-c1nc3ccc(F)cc3s1)CCc1ccccc1-2` [Example 4.3, 2-(6-fluorobenzo[d]thiazol-2-yl)-4,5-dihydro-2H-benzo[e]indazol-1-ol] registered a melting point of 246 to 247 °C.
With `Cc1ccc2nc(-n3nc4c(c3O)-c3ccccc3CC4)sc2c1` [Example 4.4, 2-(6-methylbenzo[d]thiazol-2-yl)-4,5-dihydro-2H-benzo[e]indazol-1-ol], the melting point lay in the range of 218 to 219 °C.
Same read-out and setting: in the case of `Cc1cccc2sc(-n3nc4c(c3O)-c3ccccc3CC4)nc12` [Example 4.5, 2-(4-methylbenzo[d]thiazol-2-yl)-4,5-dihydro-2H-benzo[e]indazol-1-ol] it was 224 to 225 °C; in that of `O=C(O)c1ccc2nc(-n3nc4c(c3O)-c3ccccc3CC4)sc2c1` [Example 4.6, 2-(1-hydroxy-4,5-dihydro-2H-benzo[e]indazol-2-yl)benzo[d]thiazole-6-carboxylic acid], above 280 °C.
`CC(C)(C)c1csc(-n2nc3c(c2O)-c2ccccc2CC3)n1.Cl` [Example 5, 2-(4-tert-butylthiazol-2-yl)-4,5-dihydro-2H-benzo[e]indazol-1-ol hydrochloride]: the melting point was above 250 °C. Also, in series [1], the IC50 is at least 1 µM.
On to `Oc1c2c(nn1-c1nc3ccccc3[nH]1)CCc1ccccc1-2` [Example 6, 2-(1H-benzo[d]imidazol-2-yl)-4,5-dihydro-2H-benzo[e]indazol-1-ol], for which the melting point fell in the range of 205 to 206 °C.
In the case of `Oc1c2c(nn1-c1ccccn1)CCCc1ccccc1-2` [Example 7, 2-pyridin-2-yl-2,4,5,6-tetrahydro-2,3-diaza-benzo[e]azulen-1-ol], the melting point was 80 to 81 °C. Besides, the IC50 in series [1] was in the range of 0.1 to 1 µM.

The values are drawn from US20080234327A1, “DIHYDROINDAZOLE COMPOUNDS USEFUL IN TREATING IRON DISORDERS” (XENON PHARMACEUTICALS INC., priority 2007, published 2008).
